Values after ≈ are worked out from the molar mass of the structure shown.
Tests used:
[1] = tested on: Staphylococcus aureus S13E; assay type: cell-based
Experimental: (§1) The MIC's were determined using a standard broth micro-dilution assay.

[2] = tested on: Staphylococcus aureus SA1199B; assay type: cell-based
Experimental: as §1

[3] = tested on: Entercoccus faecium 180-1; experiment: broth micro-dilution MIC; assay type: cell-based
Experimental: as §1

[4] = tested on: Entercoccus faecium 276; experiment: broth micro-dilution MIC; assay type: cell-based
Experimental: as §1

[5] = tested on: Staphylococcus aureus 446; experiment: broth micro-dilution MIC; assay type: cell-based
Experimental: as §1

[6] = tested on: Staphylococcus aureus 447; experiment: broth micro-dilution MIC; assay type: cell-based
Experimental: as §1

[7] = tested on: Staphylococcus aureus 489; experiment: broth micro-dilution MIC; assay type: cell-based
Experimental: as §1

[8] = tested on: Staphylococcus aureus SA1199A; experiment: broth micro-dilution MIC; assay type: cell-based
Experimental: as §1

[9] = tested on: Staphylococcus aureus SA1199; experiment: broth micro-dilution MIC; assay type: cell-based
Experimental: as §1

[10] = tested on: Staphylococcus aureus X400; experiment: broth micro-dilution MIC; assay type: cell-based
Experimental: as §1

[11] = tested on: Staphylococcus aureus X778; experiment: broth micro-dilution MIC; assay type: cell-based
Experimental: as §1

[12] = tested on: Streptococcus pyogenes C203; experiment: broth micro-dilution MIC; assay type: cell-based
Experimental: as §1

[13] = tested on: Entercoccus faecium 180; experiment: broth micro-dilution MIC; assay type: cell-based; conditions: Entercoccus faecium 180
Experimental: (§2) The formula I compounds have in vitro and in vivo activity against Gram-positive pathogenic bacteria. The MIC's were determined using a standard broth micro-dilution assay.

[14] = tested on: Entercoccus faecium 2041; experiment: broth micro-dilution MIC; assay type: cell-based; conditions: Entercoccus faecium 2041
Experimental: as §2

[15] = tested on: Enterococcus gallinarum 245; experiment: broth micro-dilution MIC; assay type: cell-based; conditions: Enterococcus gallinarum 245
Experimental: as §2

[16] = tested on: Staphylococcus epidermidis 270; experiment: broth micro-dilution MIC; assay type: cell-based
Experimental: as §2

[17] = tested on: Staphylococcus haemolyticus 105; experiment: broth micro-dilution MIC; assay type: cell-based
Experimental: as §2

[18] = tested on: Staphylococcus haemolyticus 415; experiment: broth micro-dilution MIC; assay type: cell-based
Experimental: as §2

[19] = tested on: Streptococcus pneumoniae P1; experiment: broth micro-dilution MIC; assay type: cell-based
Experimental: as §2

[20] = tested on: Staphylococcus aureus 491; experiment: broth micro-dilution MIC; assay type: cell-based
Experimental: as §1

[21] = tested on: vancomycin-resistant enterococci; experiment: broth micro-dilution, mean geometric MIC; assay type: cell-based, Enterococcus faecium and Enterococcus faecalis; conditions: enterococci, 24-hour incubation
[22] = tested on: vancomycin-susceptible enterococci; experiment: broth micro-dilution, mean geometric MIC; assay type: cell-based, Enterococcus faecium and Enterococcus faecalis; conditions: enterococci, 24-hour incubation

SMILES | MIC [1] [µg/mL] | MIC [2] [µg/mL] | MIC [3] [µg/mL] | MIC [4] [µg/mL] | MIC [5] [µg/mL] | MIC [6] [µg/mL] | MIC [8] [µg/mL] | MIC [10] [µg/mL] | MIC [11] [µg/mL] | MIC [12] [µg/mL] | MIC [13] [µg/mL] | MIC [14] [µg/mL] | MIC [15] [µg/mL] | MIC [16] [µg/mL] | MIC [17] [µg/mL] | MIC [18] [µg/mL] | MIC [19] [µg/mL] | MIC [20] [µg/mL] | mean geometric MIC, Vancomycin Resistant Strains [21] [µg/mL] | mean geometric MIC, Vancomycin Sensitive Strains [22] [µg/mL] | also measured
CNC(CC(C)C)C(=O)NC1C(=O)NC(CC(N)=O)C(=O)NC2C(=O)NC3C(=O)NC(C(=O)NC(C(=O)O)c4cc(O)cc(O)c4-c4cc3ccc4O)C(OC3CC(C)(N)C(O)C(C)O3)c3ccc(c(Cl)c3)Oc3cc2cc(c3OC2OC(CO)C(O)C(O)C2OC2CC(C)(NCc3cccc(OC(C)=O)c3)C(O)C(C)O2)Oc2ccc(cc2Cl)C1O (stereo not drawn) [Compound 77] | 0.125 (≈ 0.0718 µM) | 0.125 (≈ 0.0718 µM) | 0.125 (≈ 0.0718 µM) | 0.25 (≈ 0.144 µM) | ≤ 0.06 | 1 (≈ 0.575 µM) | ≤ 0.06 | ≤ 0.06 | ≤ 0.06 | ≤ 0.06 | 8 (≈ 4.6 µM) | 0.25 (≈ 0.144 µM) | 0.25 (≈ 0.144 µM) | 0.5 (≈ 0.287 µM) | 2 (≈ 1.15 µM) | 8 (≈ 4.6 µM) | ≤ 0.06 |  |  |  | MIC [7]: ≤ 0.06 µg/mL; MIC [9]: ≤ 0.06 µg/mL
CNC(CC(C)C)C(=O)NC1C(=O)NC(CC(N)=O)C(=O)NC2C(=O)NC3C(=O)NC(C(=O)NC(C(=O)O)c4cc(O)cc(O)c4-c4cc3ccc4O)C(OC3CC(C)(N)C(O)C(C)O3)c3ccc(c(Cl)c3)Oc3cc2cc(c3OC2OC(CO)C(O)C(O)C2OC2CC(C)(NCc3ccc4c(c3)CCO4)C(O)C(C)O2)Oc2ccc(cc2Cl)C1O (stereo not drawn) [Compound 82] | ≤ 0.06 | 1 (≈ 0.58 µM) | 0.125 (≈ 0.0725 µM) | ≤ 0.06 | 2 (≈ 1.16 µM) | 4 (≈ 2.32 µM) | 0.5 (≈ 0.29 µM) |  | 0.5 (≈ 0.29 µM) | ≤ 0.06 | 2 (≈ 1.16 µM) | 0.5 (≈ 0.29 µM) | 0.125 (≈ 0.0725 µM) | 4 (≈ 2.32 µM) | 8 (≈ 4.64 µM) | 8 (≈ 4.64 µM) | ≤ 0.06 | 1 (≈ 0.58 µM) | 22 | 0.50 | 
CNC(CC(C)C)C(=O)NC1C(=O)NC(CC(N)=O)C(=O)NC2C(=O)NC3C(=O)NC(C(=O)NC(C(=O)O)c4cc(O)cc(O)c4-c4cc3ccc4O)C(OC3CC(C)(N)C(O)C(C)O3)c3ccc(c(Cl)c3)Oc3cc2cc(c3OC2OC(CO)C(O)C(O)C2OC2CC(C)(NCc3ccc(O)cc3)C(O)C(C)O2)Oc2ccc(cc2Cl)C1O (stereo not drawn) [Compound 136] | ≤ 0.06 | ≤ 0.06 | ≤ 0.06 | ≤ 0.06 | ≤ 0.06 | 2 (≈ 1.18 µM) | ≤ 0.06 | ≤ 0.06 | ≤ 0.06 | ≤ 0.06 | 2 (≈ 1.18 µM) | ≤ 0.06 | 4 (≈ 2.35 µM) | 1 (≈ 0.589 µM) | 2 (≈ 1.18 µM) | 4 (≈ 2.35 µM) | ≤ 0.06 |  | 23 | 0.76 | MIC [7]: ≤ 0.06 µg/mL; MIC [9]: ≤ 0.06 µg/mL
CNC(CC(C)C)C(=O)NC1C(=O)NC(CC(N)=O)C(=O)NC2C(=O)NC3C(=O)NC(C(=O)NC(C(=O)O)c4cc(O)cc(O)c4-c4cc3ccc4O)C(OC3CC(C)(N)C(O)C(C)O3)c3ccc(c(Cl)c3)Oc3cc2cc(c3OC2OC(CO)C(O)C(O)C2OC2CC(C)(NCC34CC5CC(CC(C5)C3)C4)C(O)C(C)O2)Oc2ccc(cc2Cl)C1O (stereo not drawn) [Compound 141] |  | 2 (≈ 1.15 µM) | ≤ 0.06 | 0.5 (≈ 0.287 µM) | 2 (≈ 1.15 µM) | 1 (≈ 0.574 µM) | ≤ 0.06 |  | 0.5 (≈ 0.287 µM) | ≤ 0.06 | 0.5 (≈ 0.287 µM) | ≤ 0.06 | 4 (≈ 2.3 µM) | 1 (≈ 0.574 µM) | 1 (≈ 0.574 µM) | 4 (≈ 2.3 µM) | ≤ 0.06 | 0.5 (≈ 0.287 µM) | 8.0 |  | 
CNC(CC(C)C)C(=O)NC1C(=O)NC(CC(N)=O)C(=O)NC2C(=O)NC3C(=O)NC(C(=O)NC(C(=O)O)c4cc(O)cc(O)c4-c4cc3ccc4O)C(OC3CC(C)(N)C(O)C(C)O3)c3ccc(c(Cl)c3)Oc3cc2cc(c3OC2OC(CO)C(O)C(O)C2OC2CC(C)(NCc3ccc([S+]([O-])c4ccccc4)cc3)C(O)C(C)O2)Oc2ccc(cc2Cl)C1O (stereo not drawn) [Compound 159] | 1 (≈ 0.553 µM) | ≤ 0.06 | ≤ 0.06 |  | 0.5 (≈ 0.277 µM) | 4 (≈ 2.21 µM) | ≤ 0.06 | 4 (≈ 2.21 µM) | 2 (≈ 1.11 µM) | ≤ 0.06 | 2 (≈ 1.11 µM) |  | 8 (≈ 4.43 µM) | 0.5 (≈ 0.277 µM) | 16 (≈ 8.86 µM) | 8 (≈ 4.43 µM) | ≤ 0.06 | 2 (≈ 1.11 µM) | 27 | 0.50 | 
CNC(CC(C)C)C(=O)NC1C(=O)NC(CC(N)=O)C(=O)NC2C(=O)NC3C(=O)NC(C(=O)NC(C(=O)O)c4cc(O)cc(O)c4-c4cc3ccc4O)C(OC3CC(C)(N)C(O)C(C)O3)c3ccc(c(Cl)c3)Oc3cc2cc(c3OC2OC(CO)C(O)C(O)C2OC2CC(C)(NCc3ccc(NC(=O)c4ccc(F)cc4)cc3)C(O)C(C)O2)Oc2ccc(cc2Cl)C1O (stereo not drawn) [Compound 193] | ≤ 0.06 |  | ≤ 0.06 | ≤ 0.06 | 0.5 (≈ 0.275 µM) | ≤ 0.06 | ≤ 0.06 |  | ≤ 0.06 | ≤ 0.06 | ≤ 0.06 | ≤ 0.06 | 1 (≈ 0.55 µM) |  | 0.5 (≈ 0.275 µM) | 1 (≈ 0.55 µM) | ≤ 0.06 | ≤ 0.06 | 2 | 0.072 | 
CNC(CC(C)C)C(=O)NC1C(=O)NC(CC(N)=O)C(=O)NC2C(=O)NC3C(=O)NC(C(=O)NC(C(=O)O)c4cc(O)cc(O)c4-c4cc3ccc4O)C(OC3CC(C)(N)C(O)C(C)O3)c3ccc(c(Cl)c3)Oc3cc2cc(c3OC2OC(CO)C(O)C(O)C2OC2CC(C)(NCc3sccc3-c3cccs3)C(O)C(C)O2)Oc2ccc(cc2Cl)C1O (stereo not drawn) [Compound 238] | 0.125 (≈ 0.0706 µM) | 0.5 (≈ 0.282 µM) | ≤ 0.06 | ≤ 0.06 | 1 (≈ 0.565 µM) | 0.5 (≈ 0.282 µM) | ≤ 0.06 | 1 (≈ 0.565 µM) | 0.5 (≈ 0.282 µM) | ≤ 0.06 | 0.125 (≈ 0.0706 µM) | ≤ 0.06 | ≤ 0.06 | 0.5 (≈ 0.282 µM) | 0.5 (≈ 0.282 µM) | 2 (≈ 1.13 µM) | ≤ 0.06 |  | 1.4 | 0.14 | MIC [7]: 0.5 µg/mL (≈ 0.282 µM); MIC [9]: 0.5 µg/mL (≈ 0.282 µM)

From patent US5840684A, “Glycopeptide antibiotic derivatives” (Eli Lilly and Company, priority 1995, dated 1998)
